From US20250230193A1, “CYCLIC COMPOUND HAVING SELECTIVE KRAS INHIBITORY EFFECT ON HRAS AND NRAS” (CHUGAI SEIYAKU KABUSHIKI KAISHA, priority 2022, published 2025)

Columns and labels:
[1] = target: GDP-bound HRAS wild-type protein (Homo sapiens, UniProt P01112); assay: Binding to HRAS by surface plasmon resonance (SPR), Single Cycle Kinetics; conditions: SPR; KD ratio class
[2] = target: GDP-bound NRAS wild-type protein (Homo sapiens, UniProt P01111); assay: Binding to NRAS by surface plasmon resonance (SPR), Single Cycle Kinetics; conditions: SPR; KD ratio class
GDP-bound NRAS wild-type protein, sequence (P01111 whole entry): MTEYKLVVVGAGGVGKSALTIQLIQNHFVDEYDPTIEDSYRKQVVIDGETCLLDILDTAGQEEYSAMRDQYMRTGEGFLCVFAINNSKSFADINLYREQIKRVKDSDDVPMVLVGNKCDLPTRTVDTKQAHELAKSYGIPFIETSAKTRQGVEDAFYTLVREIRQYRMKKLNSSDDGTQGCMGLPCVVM

[3] = system: human lung cancer strain NCI-H441; assay: cells; conditions: NCI-H441, 96 h, read-out: NCI-H441 IC50 (nM)

GDP-bound HRAS wild-type protein, sequence (P01112 whole entry): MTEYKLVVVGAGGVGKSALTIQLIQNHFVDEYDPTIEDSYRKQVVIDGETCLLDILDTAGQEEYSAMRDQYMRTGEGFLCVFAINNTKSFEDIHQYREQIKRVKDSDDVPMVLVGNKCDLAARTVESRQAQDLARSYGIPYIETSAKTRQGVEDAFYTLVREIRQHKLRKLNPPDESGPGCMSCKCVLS

IC50 [3] | Structure (SMILES) | HRAS/KRAS (ratio of KD value for GDP-bound HRAS wild-type protein to KD value for KRAS) [1] | NRAS/KRAS (ratio of KD value for GDP-bound NRAS wild-type protein to KD value for KRAS) [2]
21.4 nM | CCO[C@@H]1C[C@H]2C(=O)NC3(CCC3)C(=O)N(C)[C@@H](C(CC)CC)C(=O)N(C)[C@H](C(=O)N(C)C)CC(=O)N(C)[C@@H](CC3CC3)C(=O)N[C@@H]([C@@H](C)CC)C(=O)N(C)CC(=O)N(C)[C@H]3C/C=C\CCN(C3=O)[C@@H](Cc3ccc(C(F)(F)F)cc3)C(=O)N(C)CC(=O)N[C@@H](CCc3ccc(Cl)c(Cl)c3)C(=O)N2C1 [PP1219] | A (a compound having 10 or more and less than 20 is denoted as A) | AA (a compound having 20 or more is denoted as AA)
22.2 nM | CCO[C@@H]1C[C@H]2C(=O)NC3(CCC3)C(=O)N(C)[C@@H](C(CC)CC)C(=O)N(C)[C@H](C(=O)N(C)C)CC(=O)N(C)[C@@H](CC3CCCC3)C(=O)N[C@@H]([C@@H](C)CC)C(=O)N(C)CC(=O)N(C)[C@H]3C/C=C\CCN(C3=O)[C@@H](Cc3ccc(C(F)(F)F)cc3)C(=O)N(C)CC(=O)N[C@@H](CCc3ccc(Cl)c(Cl)c3)C(=O)N2C1 [PP1220] | A (a compound having 10 or more and less than 20 is denoted as A) | AA (a compound having 20 or more is denoted as AA)
40.6 nM | CCO[C@@H]1C[C@H]2C(=O)NC3(CCC3)C(=O)N(C)[C@@H](C(CC)CC)C(=O)N(C)[C@H](C(=O)N(C)C)CC(=O)N(C)[C@@H](COC)C(=O)N[C@@H]([C@@H](C)CC)C(=O)N(C)CC(=O)N(C)[C@H]3C/C=C\CCN(C3=O)[C@@H](Cc3ccc(C(F)(F)F)cc3)C(=O)N(C)CC(=O)N[C@@H](CCc3ccc(Cl)c(Cl)c3)C(=O)N2C1 [PP1221] | A (a compound having 10 or more and less than 20 is denoted as A) | AA (a compound having 20 or more is denoted as AA)
301 nM | CCO[C@@H]1C[C@H]2C(=O)NC3(CCC3)C(=O)N(C)[C@@H](C(CC)CC)C(=O)N(C)[C@H](C(=O)N(C)C)CC(=O)N(C)[C@@H](C)C(=O)N[C@@H]([C@@H](C)CC)C(=O)N(C)CC(=O)N(C)[C@H]3C/C=C\CCN(C3=O)[C@@H](Cc3ccc(C(F)(F)F)cc3)C(=O)N(C)CC(=O)N[C@@H](CCc3ccc4sccc4c3)C(=O)N2C1 [PP1222] | A (a compound having 10 or more and less than 20 is denoted as A) | A (a compound having 10 or more and less than 20 is denoted as A)
117 nM | CCO[C@@H]1C[C@H]2C(=O)NC3(CCC3)C(=O)N(C)[C@@H](C(CC)CC)C(=O)N(C)[C@H](C(=O)N(C)C)CC(=O)N(C)[C@@H](CC)C(=O)N[C@@H]([C@@H](C)CC)C(=O)N(C)CC(=O)N(C)[C@H]3C/C=C\CCN(C3=O)[C@@H](Cc3ccc(C(F)(F)F)cc3)C(=O)N(C)CC(=O)N[C@@H](CCc3ccc4sccc4c3)C(=O)N2C1 [PP1223] | A (a compound having 10 or more and less than 20 is denoted as A) | AA (a compound having 20 or more is denoted as AA)
122 nM | CCC[C@H]1C(=O)N[C@@H]([C@@H](C)CC)C(=O)N(C)CC(=O)N(C)[C@H]2C/C=C\CCN(C2=O)[C@@H](Cc2ccc(C(F)(F)F)cc2)C(=O)N(C)CC(=O)N[C@@H](CCc2ccc3sccc3c2)C(=O)N2C[C@H](OCC)C[C@H]2C(=O)NC2(CCC2)C(=O)N(C)[C@@H](C(CC)CC)C(=O)N(C)[C@H](C(=O)N(C)C)CC(=O)N1C [PP1224] | A (a compound having 10 or more and less than 20 is denoted as A) | A (a compound having 10 or more and less than 20 is denoted as A)
92.5 nM | CCO[C@@H]1C[C@H]2C(=O)NC3(CCC3)C(=O)N(C)[C@@H](C(CC)CC)C(=O)N(C)[C@H](C(=O)N(C)C)CC(=O)N(C)[C@@H](CC(C)C)C(=O)N[C@@H]([C@@H](C)CC)C(=O)N(C)CC(=O)N(C)[C@H]3C/C=C\CCN(C3=O)[C@@H](Cc3ccc(C(F)(F)F)cc3)C(=O)N(C)CC(=O)N[C@@H](CCc3ccc4sccc4c3)C(=O)N2C1 [PP1225] | A (a compound having 10 or more and less than 20 is denoted as A) | AA (a compound having 20 or more is denoted as AA)
106 nM | CCCCCC[C@H]1C(=O)N[C@@H]([C@@H](C)CC)C(=O)N(C)CC(=O)N(C)[C@H]2C/C=C\CCN(C2=O)[C@@H](Cc2ccc(C(F)(F)F)cc2)C(=O)N(C)CC(=O)N[C@@H](CCc2ccc3sccc3c2)C(=O)N2C[C@H](OCC)C[C@H]2C(=O)NC2(CCC2)C(=O)N(C)[C@@H](C(CC)CC)C(=O)N(C)[C@H](C(=O)N(C)C)CC(=O)N1C [PP1226] | A (a compound having 10 or more and less than 20 is denoted as A) | AA (a compound having 20 or more is denoted as AA)
128 nM | CCO[C@@H]1C[C@H]2C(=O)NC3(CCC3)C(=O)N(C)[C@@H](C(CC)CC)C(=O)N(C)[C@H](C(=O)N(C)C)CC(=O)N(C)[C@@H](CC3CC3)C(=O)N[C@@H]([C@@H](C)CC)C(=O)N(C)CC(=O)N(C)[C@H]3C/C=C\CCN(C3=O)[C@@H](Cc3ccc(C(F)(F)F)cc3)C(=O)N(C)CC(=O)N[C@@H](CCc3ccc4sccc4c3)C(=O)N2C1 [PP1227] | A (a compound having 10 or more and less than 20 is denoted as A) | A (a compound having 10 or more and less than 20 is denoted as A)
144 nM | CCO[C@@H]1C[C@H]2C(=O)NC3(CCC3)C(=O)N(C)[C@@H](C(CC)CC)C(=O)N(C)[C@H](C(=O)N(C)C)CC(=O)N(C)[C@@H](COC)C(=O)N[C@@H]([C@@H](C)CC)C(=O)N(C)CC(=O)N(C)[C@H]3C/C=C\CCN(C3=O)[C@@H](Cc3ccc(C(F)(F)F)cc3)C(=O)N(C)CC(=O)N[C@@H](CCc3ccc4sccc4c3)C(=O)N2C1 [PP1229] | A (a compound having 10 or more and less than 20 is denoted as A) | A (a compound having 10 or more and less than 20 is denoted as A)
110 nM | CCO[C@@H]1C[C@H]2C(=O)NC3(CCC3)C(=O)N(C)[C@@H](C(CC)CC)C(=O)N(C)[C@H](C(=O)N(C)C)CC(=O)N(C)[C@@H](CC)C(=O)N[C@@H]([C@@H](C)CC)C(=O)N(C)CC(=O)N(C)[C@H]3C/C=C\CCN(C3=O)[C@@H](Cc3ccc(C(F)(F)F)cc3)C(=O)N(C)CC(=O)N[C@@H](CCc3cc(F)c(Cl)c(F)c3)C(=O)N2C1 [PP1230] | A (a compound having 10 or more and less than 20 is denoted as A) | A (a compound having 10 or more and less than 20 is denoted as A)
23.1 nM | CCC[C@H]1C(=O)N[C@@H]([C@@H](C)CC)C(=O)N(C)CC(=O)N(C)[C@H]2C/C=C\CCN(C2=O)[C@@H](Cc2ccc(C(F)(F)F)cc2)C(=O)N(C)CC(=O)N[C@@H](CCc2cc(F)c(Cl)c(F)c2)C(=O)N2C[C@H](OCC)C[C@H]2C(=O)NC2(CCC2)C(=O)N(C)[C@@H](C(CC)CC)C(=O)N(C)[C@H](C(=O)N(C)C)CC(=O)N1C [PP1231] | A (a compound having 10 or more and less than 20 is denoted as A) | AA (a compound having 20 or more is denoted as AA)
59.7 nM | CCO[C@@H]1C[C@H]2C(=O)NC3(CCC3)C(=O)N(C)[C@@H](C(CC)CC)C(=O)N(C)[C@H](C(=O)N(C)C)CC(=O)N(C)[C@@H](CC(C)C)C(=O)N[C@@H]([C@@H](C)CC)C(=O)N(C)CC(=O)N(C)[C@H]3C/C=C\CCN(C3=O)[C@@H](Cc3ccc(C(F)(F)F)cc3)C(=O)N(C)CC(=O)N[C@@H](CCc3cc(F)c(Cl)c(F)c3)C(=O)N2C1 [PP1232] | A (a compound having 10 or more and less than 20 is denoted as A) | A (a compound having 10 or more and less than 20 is denoted as A)
34.7 nM | CCO[C@@H]1C[C@H]2C(=O)NC3(CCC3)C(=O)N(C)[C@@H](C(CC)CC)C(=O)N(C)[C@H](C(=O)N(C)C)CC(=O)N(C)[C@@H](CC3CC3)C(=O)N[C@@H]([C@@H](C)CC)C(=O)N(C)CC(=O)N(C)[C@H]3C/C=C\CCN(C3=O)[C@@H](Cc3ccc(C(F)(F)F)cc3)C(=O)N(C)CC(=O)N[C@@H](CCc3cc(F)c(Cl)c(F)c3)C(=O)N2C1 [PP1233] | A (a compound having 10 or more and less than 20 is denoted as A) | AA (a compound having 20 or more is denoted as AA)
398 nM | CCO[C@@H]1C[C@H]2C(=O)NC3(CCC3)C(=O)N(C)[C@@H](C3CCCC3)C(=O)N(C)[C@@H](C(=O)N(C)C)CC(=O)N(C)[C@@H](CC)C(=O)N[C@@H]([C@@H](C)CC)C(=O)N(C)CC(=O)N(C)[C@H]3C/C=C\CCN(C3=O)[C@@H](Cc3ccc(C(F)(F)F)cc3)C(=O)N(C)CC(=O)N[C@@H](CCc3cc(F)c(C(F)(F)F)c(F)c3)C(=O)N2C1 [PP1234] | C (A compound having a KD ratio of 0.1 or more and less than 3 is denoted as C) | B (a compound having 3 or more and less than 10 is denoted as B)
